Data from patent US20060018921A1, “Histone deacetylase inhibitors and cognitive applications” (priority 2004, published 2006).
Entries after “also recorded” stand apart in the source; their conditions may differ.

Columns and labels:
[1] = system: histone H4 (Lys5/Lys8/Lys12/Lys16); assay: Acetylation of histone H4 in area CA1 after contextual fear conditioning; conditions: injection of MK-801 1 h prior to or SL327 immediately after training
ERK2 [2] = assay: P-ERK2 western blot of area CA1 after contextual fear conditioning; conditions: MK-801 300 μg/kg 1 h prior to training; SL327 100 mg/kg immediately after training
[3] = Contextual fear conditioning, freezing behavior; conditions: for spontaneous freezing behavior on re-exposure 24 h after mock training, no shock (FIG. 11D): sodium butyrate 1.2 g/kg vs saline; for spontaneous freezing behavior during mock training, no shock (FIG. 11C): sodium butyrate 1.2 g/kg, 3 min in training chamber
histone H3 (Lys14) [4] = assay: Acetylation of histone H3 in area CA1 after contextual fear conditioning; conditions: injection of MK-801 1 h prior to or SL327 immediately after training
NMDA-Rs = assay: NMDA-R mediated synaptic transmission in slices with CNQX; assay type: cell-based, Sprague-Dawley rats; conditions: TSA 1.65 μM over 3 h; CNQX 20 μM, ACSF with 4 mM CaCl2 and no MgCl2
Procedure: In FIG. 8A, slices were exposed to the AMPA-R antagonist CNQX (20 μM) and perfused with an ACSF containing 4 mM CaCl2 and no MgCl2. The resulting field potentials represent NMDA-R mediated synaptic transmission (English and Sweatt, 1997). […] Representative traces immediately before (dashed) and 186 min after (solid) introduction of TSA are shown. Calibration bar indicates 5 msec and 1 mV. In FIG. 8B, slices were exposed to both TSA (1.65 μM) and the NMDA-R antagonist AP5 (50 μM) 20 min prior to LTP induction. After induction of LTP, the AP5 was washed out but slices were still exposed to TSA. Induction of LTP in the presence of TSA was blocked by AP5 (n=8, F[89,612]=0.5, p<1). […] In FIG. 8C, depolarization was measured during a 100 Hz tetanus in slices treated with either vehicle (0.05% EtOH, n=10) or TSA (1.65 μM, n=10) for 20 min. […]
In another series of studies, the present inventors investigated the possibility that TSA was affecting properties of NMDA-Rs. To directly measure any long-term affects of TSA on NMDA-Rs, field potentials were recorded in the presence of the AMPA-R antagonist CNQX to isolate the NMDA-R-dependent component of synaptic transmission. […] To further explore the potential affects of TSA on synaptic transmission, we measured the depolarization that occurs during the 100 Hz tetanus used to induce LTP.

[5] = system: histone H4 (Lys5/Lys8/Lys12/Lys16); assay: Acetylation of histone H4, acute hippocampal slices, area CA1
ras transformed cells = conditions: Taunton et al., 1996; cited from earlier work
animals deficient in CBP = conditions: infusion directly into the brain of animals deficient in CBP; Korzus et al., Alarcon et al. (2004); cited from earlier work
ERK2 [6] = assay: P-ERK2 western blot, acute hippocampal slices, area CA1; conditions: slices treated 1 h; PDA 3 μM, FSK 50 μM with 100 μM Ro20-1724, U0126 20 μM, PD98059 50 μM, 4αP 3 μM, dFSK 50 μM with 100 μM Ro20-1724, TSA
[7] = system: Schaffer-collateral synapses; assay: Slice electrophysiology, basal synaptic transmission (baseline fEPSP, input/output, paired-pulse facilitation, tetanus depolarization); assay type: cell-based, Sprague-Dawley rats
[8] = mouse model; Takahashi et al., 1996; cited from earlier work
histone H3 (Lys14) [9] = assay: Acetylation of histone H3, acute hippocampal slices, area CA1
SMA-like mice = conditions: Chang et al. (2001), cited from earlier work
[10] = system: survival motor neuron (SMN) protein; conditions: SMA lymphoid cell lines; Chang et al. (2001); cited from earlier work
Passive avoidance task = assay type: in vivo, Sprague-Dawley rats
Procedure: The effect of the exemplary histone deacetylase inhibitor sodium butyrate (NaB) on the exemplary hippocampus-dependent long-term memory paradigm of passive avoidance was determined. In the passive avoidance task, animals associate a dark chamber with an aversive stimulus. In the passive avoidance task, animals are placed into the lighted side of a 2-chamber shuttle box (Med Associates). An open doorway in the middle of the shuttle box leads to a dark side. Animals are allowed to move into the dark side of the chamber, upon which time the door is closed and animals are allowed to explore the dark side for 5 sec prior to receiving a brief electric shock (2 sec, 0.5 mA). Animals are given an additional 5 sec of exploration time prior to removal from the shuttle box. Latency to enter the dark side of the shuttle box is recorded for all experimental animals during the training day. Passive avoidance memory is assessed by measuring latency to enter the dark side of the shuttle box, minus the latency to enter the dark side on the training day. Passive avoidance memory was only tested once from each animal to eliminate the effect of extinction. NaB (1.2 g/kg) was administered 45 min prior to passive avoidance training.

[11] = Novel object recognition task; assay type: in vivo, Sprague-Dawley rats
Procedure: The effect of the exemplary histone deacetylase inhibitor sodium butyrate (NaB) on the exemplary hippocampus-dependent long-term memory paradigm of novel object recognition was determined. In the novel object task, an animal's ability to discriminate between a familiar and a novel object is tested. Novel object recognition training is performed over 4 consecutive days. During each day, animals are placed individually into a small holding cage prior to introduction to the training arena (44 cm^2). The first day consists of habituating animals to the training arena for 10 min. During the second and third days, the training arena has 8 small Duplo® Blocks (Lego®, 2 each: yellow, blue, red, green) placed 2 cm from the edge of the arena. During days 2 and 3, animals are simultaneously habituated to the Duplo blocks and tested for color and arena-position biases. On day 4, 2 distinct novel objects made from Duplo blocks (approx. 10×5×5 cm) are placed in opposite corners of the arena, 2 cm from the walls. Animals are allowed to explore the objects for 10 min. During each session in the arena, movement of the animal will be tracked by an automated video-based system (Limelight) and the arena and Duplo blocks are thoroughly rinsed with 10% EtOH to remove any scent cues left by subjects. During the final training session on day 4, exploration time of each object is tracked. […] Novel object recognition is assessed by calculating preference indices ([TimeNovel−TimeFamilar]) after exposure of animals to one familiar, and one novel object. Animals received an injection of either saline or NaB 45 min before the training session on day 4.

[12] = slices exposed to NaB for 40 min, data not shown
[13] = sodium butyrate 1.2 g/kg 1 h prior to 1-shock contextual fear conditioning, vs saline
[14] = sodium butyrate 1.2 g/kg 1 h prior to 1-shock contextual fear conditioning, vs saline, listed as NaB
[15] = sodium butyrate for 20 min vs vehicle
[16] = sodium butyrate for 20 min vs vehicle, listed as NaB
[17] = NaB 1.2 g/kg 45 min prior to training
[18] = NaB 45 min before the training session on day 4, vs saline

## C[C@]12N[C@H](Cc3ccccc31)c1ccccc12 [MK-801]
[1]
  histone H4 acetylation in area CA1 after fear conditioning: no effect on histone H4 acetylation
ERK2 [2]
  increase in P-ERK2 in area CA1 1 h after fear conditioning: blocked the increase in P-ERK2; also recorded: inhibited the increase in P-ERK2
[3]; MK-801 300 μg/kg 1 h prior to training, vs saline
  freezing behavior 24 h after contextual fear conditioning (contextual fear memory): blocked; also recorded: less freezing behavior than animals injected with saline
Histone H3 (Lys14) [4]
  increase in acetylation of histone H3 in area CA1 1 h after fear conditioning: inhibited the increase in H3 acetylation; also recorded: No change in H3 acetylation

## CC(/C=C/C(=O)NO)=C\[C@@H](C)C(=O)c1ccc(N(C)C)cc1 [TSA, trichostatin A]
NMDA-Rs
  NMDA-R mediated synaptic transmission: unaffected; also recorded: no short or long-term effects
[5]; slices treated 1 h, TSA 1.65 μM
  histone H4 acetylation: increased the acetylation of histone H4; also recorded: significant effect on H4 acetylation
Ras transformed cells
  hyperacetylation: induce hyperacetylation
  morphology of ras transformed cells: cause reversion of ras transformed cells to normal morphology
Animals deficient in CBP
  performance in long-term memory tasks: improved the animals' performance in some long-term memory tasks
ERK2 [6]
  levels of P-ERK2: without affecting levels of P-ERK2; also recorded: no effect on P-ERK2
[7]; 20 min and 3 h after application, data not shown
  input/output relationships and PPF, slices treated with DRB vs DRB and TSA: no significant differences in basal synaptic transmission
[7]; TSA 1.65 μM for 20 min vs vehicle 0.05% EtOH
  depolarization during 100 Hz tetanus, area under the curve: No significant difference in area under the curve
[7]; TSA for 20 min vs vehicle
  input/output relationships: no significant effect; also recorded: No significant differences
  paired-pulse facilitation: no significant effect; also recorded: unaffected
[7]; TSA for 3 h vs vehicle
  input/output relationships: no significant effect; also recorded: No significant differences
  paired-pulse facilitation: no significant effect; also recorded: unaffected
[7]; continuous TSA, up to 3 h after start of treatment
  baseline synaptic efficacy where LTP was not induced: no effect on synaptic transmission in the absence of high-frequency stimulation; also recorded: no effect on baseline synaptic efficacy
[8]
  immunosuppression: induces immunosuppression in a mouse model
Histone H3 (Lys14) [9]; slices treated 1 h, PDA 3 μM, FSK 50 μM with 100 μM Ro20-1724, 4αP 3 μM, dFSK 50 μM with 100 μM Ro20-1724, U0126 20 μM, PD98059 50 μM, TSA 1.65 μM
  histone H3 acetylation: significantly increased acetylation of H3; also recorded: increased acetylation of histone H3

## CCCC(=O)[O-].[Na+] [sodium butyrate]
[5]; [12]
  acetylation of histone H4: elevated
SMA-like mice; SMA-like mice
  expression of SMN protein in spinal cord motor neurons: increased expression of SMN protein in spinal cord motor neurons
  symptoms: improved symptoms
SMA-like mice; heterozygous knock-out transgenic SMA-like mice bred
  birth rate of severe types of SMA-like mice: decreased the birth rate of severe types of SMA-like mice
[10]
  amount of exon 7-containing SMN protein: effective at increasing the amount of exon 7-containing survival motor neuron (SMN) protein
[3]; [13]
  freezing behavior during training (FIG. 11A): unaffected
  freezing behavior during training (FIG. 11E, short-term memory study): unaffected
  freezing behavior on re-exposure to the training chamber 24 h after training (FIG. 11B): significantly more freezing behavior than animals injected with saline
[3]; [14]
  freezing behavior during training (FIG. 11A): no affect on freezing behavior observed during training
  freezing behavior during training (FIG. 11E, short-term memory study): no significant differences were seen in freezing behavior
  freezing behavior on re-exposure 1 h after training, short-term memory (FIG. 11F): no effect on freezing behavior
[3]
  spontaneous freezing behavior on re-exposure 24 h after mock training, no shock (FIG. 11D): no affect on spontaneous freezing behavior
[3]; listed as NaB
  spontaneous freezing behavior on re-exposure 24 h after mock training, no shock (FIG. 11D): no significant differences in the amount of freezing behavior
[3]; vs saline
  spontaneous freezing behavior during mock training, no shock (FIG. 11C): unaffected
[3]; vs saline, listed as NaB
  spontaneous freezing behavior during mock training, no shock (FIG. 11C): no acute effects on freezing behavior
[7]; [15]
  input/output relationships: No significant differences
  paired-pulse facilitation: unaffected
[7]; [16]
  input/output relationships: no significant affect on input/output relationships
  paired-pulse facilitation: no significant affect
Passive avoidance task; [17]
  passive avoidance memory (latency to enter dark side) 1 day after training: did not affect long-term passive avoidance memory
  passive avoidance memory (latency to enter dark side) 7 days after training: significant affects on passive avoidance memory
  passive avoidance memory (latency to enter dark side) 14 days after training: significant affects on passive avoidance memory
Passive avoidance task; NaB 45 min prior to passive avoidance training, vs saline
  long-term passive avoidance memory: enhances long-term passive avoidance memory
[11]; [18]
  novel object recognition (preference index) 1 day after training: performed significantly better than animals that received saline
  novel object recognition (preference index) 7 days after training: performed significantly better than animals that received saline
  novel object recognition (preference index) day 14: A trend for enhanced performance
[11]; NaB 45 min prior to novel object training, vs saline
  long-term novel object recognition memory: enhances long-term novel object recognition memory
Histone H3 (Lys14) [9]; [12]
  acetylation of histone H3: elevated
